Earlier results as cited in patent US20240180871A1, “MODIFIED-RELEASE SILODOSIN COMPOSITIONS AND USE THEREOF IN METHODS FOR MALE CONTRACEPTION” (PHARMAJOR INCORPORATED, priority 2022, published 2024).
Where two headings read alike, the source gives them in different places.

solubility (in acetic acid)	solubility (in alcohol)	solubility (in water)	Structure (SMILES)	effect on semen in male subjects (male subjects; during BPH treatment, in some cases, KOBAYASHI 2009, SAKATA 2012)	sex-related adverse effects associated with administration (male subjects; known in the art)
very soluble	freely soluble	very slightly soluble	C[C@H](Cc1cc2c(c(C(N)=O)c1)N(CCCO)CC2)NCCOc1ccccc1OCC(F)(F)F [(R)-silodosin, (−)-(R)-1-(3-hydroxypropyl)-5-[2-[[2-[2-(2,2,2-trifluoroethoxy)phenoxy]ethyl]amino]propyl]indoline-7-carboxamide]	–	–
–	–	–	CC(Cc1cc2c(c(C(N)=O)c1)N(CCCO)CC2)NCCOc1ccccc1OCC(F)(F)F (centres unmarked) [silodosin, 1-(3-hydroxypropyl)-5-[2-[[2-[2-(2,2,2-trifluoroethoxy)phenoxy]ethyl]amino]propyl]indoline-7-carboxamide]	causing aspermia, azoospermia, or severe oligozoospermia	discomfort upon ejaculation, decrease in the quality of orgasm, decrease in erectile function, and reduction of sexual desire
